Test results: ChEMBL document CHEMBL1201862, “PubChem BioAssay data set” (2004)
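Values below derive from 48-hour exposures of cells grown in 96-well plates, with endpoints linearly interpolated between the two concentrations bracketing the appropriate inhibition level. At the GI50, growth is halved.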 Calls of active or inactive are those of the source. No stated cut-off is given here; in the data, active = GI50 up to about 1.1 µM and inactive = higher.

Assays:
Experiment in all cases: inhibition of tumour cell growth, NCI panel, 48 h
786-0 = system: 786-0
A498 = system: A498
A549 = system: A549
ACHN = system: ACHN
BT-549 = system: BT-549
CAKI-1 = system: CAKI-1
CCRF-CEM = system: CCRF-CEM
COLO 205 = system: COLO 205
DU-145 = system: DU-145
EKVX = system: EKVX
HCC 2998 = system: HCC 2998
HCT-116 = system: HCT-116
HCT-15 = system: HCT-15
HL-60 = system: HL-60
HOP-62 = system: HOP-62
HOP-92 = system: HOP-92
HT-29 = system: HT-29
Hs-578T = system: Hs-578T
IGROV-1 = system: IGROV-1
K562 = system: K562
KM12 = system: KM12
LOX IMVI = system: LOX IMVI
M14 = system: M14
MCF7 = system: MCF7
MDA-MB-231 = system: MDA-MB-231
MDA-MB-435 = system: MDA-MB-435
MDA-N = system: MDA-N
MOLT-4 = system: MOLT-4
Malme-3M = system: Malme-3M
NCI-H226 = system: NCI-H226
NCI-H23 = system: NCI-H23
NCI-H460 = system: NCI-H460
NCI-H522 = system: NCI-H522
NCI/ADR-RES = system: NCI/ADR-RES
OVCAR-3 = system: OVCAR-3
OVCAR-4 = system: OVCAR-4
OVCAR-5 = system: OVCAR-5
OVCAR-8 = system: OVCAR-8
PC-3 = system: PC-3
RPMI-8226 = system: RPMI-8226
SF-268 = system: SF-268
SF-295 = system: SF-295
SF-539 = system: SF-539
SK-MEL-28 = system: SK-MEL-28
SK-MEL-2 = system: SK-MEL-2
SK-MEL-5 = system: SK-MEL-5
SK-OV-3 = system: SK-OV-3
SN12C = system: SN12C
SNB-19 = system: SNB-19
SNB-75 = system: SNB-75
SR = system: SR
SW-620 = system: SW-620
T47D = system: T47D
TK-10 = system: TK-10
U-251 = system: U-251
UACC-257 = system: UACC-257
UACC-62 = system: UACC-62
UO-31 = system: UO-31
RXF 393 = system: RXF 393

## O=C1CCC2C(O)c3cc4c(cc3C(c3ccc5c(c3)OCO5)N12)OCO4 (stereo unspecified)
786-0
  GI50: 82 µM (inactive)
A498
  GI50: > 100 µM (inactive)
A549
  GI50: > 100 µM (inactive)
ACHN
  GI50: > 100 µM (inactive)
BT-549
  GI50: 47.6 µM (inactive)
CAKI-1
  GI50: > 100 µM (inactive)
CCRF-CEM
  GI50: > 100 µM (inactive)
COLO 205
  GI50: > 100 µM (inactive)
DU-145
  GI50: > 100 µM (inactive)
EKVX
  GI50: > 100 µM (inactive)
HCC 2998
  GI50: > 100 µM (inactive)
HCT-116
  GI50: > 100 µM (inactive)
HCT-15
  GI50: > 100 µM
HL-60
  GI50: > 100 µM (inactive)
HOP-62
  GI50: 25 µM (inactive)
HOP-92
  GI50: 35.2 µM (inactive)
HT-29
  GI50: > 100 µM (inactive)
Hs-578T
  GI50: 24.4 µM (inactive)
IGROV-1
  GI50: > 100 µM (inactive)
K562
  GI50: > 100 µM (inactive)
KM12
  GI50: > 100 µM (inactive)
LOX IMVI
  GI50: > 100 µM (inactive)
M14
  GI50: > 100 µM (inactive)
MCF7
  GI50: > 100 µM (inactive)
MDA-MB-231
  GI50: > 100 µM (inactive)
MDA-MB-435
  GI50: > 100 µM (inactive)
MDA-N
  GI50: > 100 µM (inactive)
MOLT-4
  GI50: > 100 µM (inactive)
Malme-3M
  GI50: > 100 µM (inactive)
NCI-H226
  GI50: 67.9 µM (inactive)
NCI-H23
  GI50: > 100 µM (inactive)
NCI-H460
  GI50: > 100 µM (inactive)
NCI-H522
  GI50: 89.5 µM (inactive)
NCI/ADR-RES
  GI50: 94 µM (inactive)
OVCAR-3
  GI50: > 100 µM (inactive)
OVCAR-4
  GI50: > 100 µM (inactive)
OVCAR-5
  GI50: > 100 µM (inactive)
OVCAR-8
  GI50: 35.6 µM (inactive)
PC-3
  GI50: > 100 µM (inactive)
RPMI-8226
  GI50: > 100 µM (inactive)
SF-268
  GI50: 19.2 µM (inactive)
SF-295
  GI50: 49.2 µM (inactive)
SF-539
  GI50: 80 µM (inactive)
SK-MEL-28
  GI50: > 100 µM (inactive)
SK-MEL-2
  GI50: > 100 µM (inactive)
SK-MEL-5
  GI50: > 100 µM (inactive)
SK-OV-3
  GI50: 40 µM (inactive)
SN12C
  GI50: 76 µM (inactive)
SNB-19
  GI50: 29.2 µM (inactive)
SNB-75
  GI50: 16.3 µM (inactive)
SR
  GI50: > 100 µM (inactive)
SW-620
  GI50: > 100 µM (inactive)
T47D
  GI50: > 100 µM (inactive)
TK-10
  GI50: > 100 µM (inactive)
U-251
  GI50: 26.1 µM (inactive)
UACC-257
  GI50: > 100 µM (inactive)
UACC-62
  GI50: > 100 µM (inactive)
UO-31
  GI50: 59.7 µM (inactive)

## O=C1c2cccc(O)c2C(=O)c2c(OC3OC(CO)C(O)C(O)C3O)cccc21 (stereo unspecified)
786-0
  GI50: 22.2 µM (inactive)
A498
  GI50: > 100 µM (inactive)
A549
  GI50: 27.3 µM (inactive)
ACHN
  GI50: 61.7 µM (inactive)
BT-549
  GI50: 21.8 µM (inactive)
CAKI-1
  GI50: 55.5 µM (inactive)
COLO 205
  GI50: 19.4 µM (inactive)
DU-145
  GI50: 32.2 µM (inactive)
EKVX
  GI50: 32.7 µM (inactive)
HCC 2998
  GI50: 24.8 µM (inactive)
HCT-116
  GI50: 19.8 µM (inactive)
HCT-15
  GI50: 20.6 µM
HOP-62
  GI50: 46.3 µM (inactive)
HOP-92
  GI50: 73.8 µM (inactive)
HT-29
  GI50: 33.3 µM (inactive)
Hs-578T
  GI50: 17.8 µM (inactive)
IGROV-1
  GI50: 39.2 µM (inactive)
K562
  GI50: 48 µM (inactive)
KM12
  GI50: 30.3 µM (inactive)
LOX IMVI
  GI50: 37.5 µM (inactive)
M14
  GI50: 21.5 µM (inactive)
MCF7
  GI50: 30.1 µM (inactive)
MDA-MB-231
  GI50: 21.3 µM (inactive)
MDA-MB-435
  GI50: 18.2 µM (inactive)
MDA-N
  GI50: 28.6 µM (inactive)
Malme-3M
  GI50: 6.12 µM (inactive)
NCI-H226
  GI50: > 100 µM (inactive)
NCI-H23
  GI50: 15.3 µM (inactive)
NCI-H460
  GI50: 17.9 µM (inactive)
NCI-H522
  GI50: 15.8 µM (inactive)
NCI/ADR-RES
  GI50: 17 µM (inactive)
OVCAR-3
  GI50: 31.4 µM (inactive)
OVCAR-4
  GI50: 16.1 µM (inactive)
OVCAR-5
  GI50: 51.6 µM (inactive)
OVCAR-8
  GI50: 31.8 µM (inactive)
PC-3
  GI50: 24.5 µM (inactive)
RPMI-8226
  GI50: 23.9 µM (inactive)
RXF 393
  GI50: 26 µM (inactive)
SF-268
  GI50: 22.9 µM (inactive)
SF-295
  GI50: 48.5 µM (inactive)
SF-539
  GI50: 25.5 µM (inactive)
SK-MEL-28
  GI50: > 100 µM (inactive)
SK-MEL-2
  GI50: 46.8 µM (inactive)
SK-MEL-5
  GI50: 16.5 µM (inactive)
SK-OV-3
  GI50: 48.2 µM (inactive)
SN12C
  GI50: 24.7 µM (inactive)
SNB-19
  GI50: 33.7 µM (inactive)
SNB-75
  GI50: 24 µM (inactive)
SR
  GI50: 32.4 µM (inactive)
SW-620
  GI50: 16.9 µM (inactive)
T47D
  GI50: 20.4 µM (inactive)
TK-10
  GI50: 40.4 µM (inactive)
U-251
  GI50: 25.2 µM (inactive)
UACC-257
  GI50: 19.5 µM (inactive)
UACC-62
  GI50: 49.8 µM (inactive)
UO-31
  GI50: 35.2 µM (inactive)

## CC1CC[C@]2(C(=O)O)CCC3(C)C(=C2[C@H]1C)C=CC1[C@@]2(C)CC[C@H](O)C(C)(C)C2CC[C@]13C (stereo partly specified)
786-0
  GI50: 29.9 µM (inactive)
A549
  GI50: 11.8 µM (inactive)
ACHN
  GI50: 16.4 µM (inactive)
BT-549
  GI50: 33.7 µM (inactive)
CAKI-1
  GI50: 22.8 µM (inactive)
CCRF-CEM
  GI50: 29.7 µM (inactive)
COLO 205
  GI50: 44.4 µM (inactive)
DU-145
  GI50: 16.6 µM (inactive)
EKVX
  GI50: 32.8 µM (inactive)
HCC 2998
  GI50: 29.7 µM (inactive)
HCT-116
  GI50: 17.6 µM (inactive)
HCT-15
  GI50: 27.4 µM
HL-60
  GI50: 18.6 µM (inactive)
HOP-62
  GI50: 21.1 µM (inactive)
HOP-92
  GI50: 18.7 µM (inactive)
HT-29
  GI50: 31.1 µM (inactive)
Hs-578T
  GI50: 26 µM (inactive)
IGROV-1
  GI50: 27.9 µM (inactive)
K562
  GI50: 14.7 µM (inactive)
KM12
  GI50: 31 µM (inactive)
LOX IMVI
  GI50: 33.1 µM (inactive)
M14
  GI50: 44.9 µM (inactive)
MCF7
  GI50: 30 µM (inactive)
MDA-MB-231
  GI50: 21.3 µM (inactive)
MDA-MB-435
  GI50: 63.1 µM (inactive)
MDA-N
  GI50: 56.9 µM (inactive)
MOLT-4
  GI50: 23.7 µM (inactive)
Malme-3M
  GI50: 26.6 µM (inactive)
NCI-H226
  GI50: 66.1 µM (inactive)
NCI-H23
  GI50: 24.9 µM (inactive)
NCI-H460
  GI50: 21.6 µM (inactive)
NCI-H522
  GI50: 23.1 µM (inactive)
NCI/ADR-RES
  GI50: 36.6 µM (inactive)
OVCAR-3
  GI50: 17.5 µM (inactive)
OVCAR-4
  GI50: 30.1 µM (inactive)
OVCAR-5
  GI50: 39.5 µM (inactive)
OVCAR-8
  GI50: 27.7 µM (inactive)
PC-3
  GI50: 21.1 µM (inactive)
RPMI-8226
  GI50: 12.2 µM (inactive)
RXF 393
  GI50: 3.8 µM (inactive)
SF-268
  GI50: 27.7 µM (inactive)
SF-295
  GI50: 19.9 µM (inactive)
SF-539
  GI50: 17.3 µM (inactive)
SK-MEL-28
  GI50: 28.3 µM (inactive)
SK-MEL-2
  GI50: 64.9 µM (inactive)
SK-MEL-5
  GI50: 21.4 µM (inactive)
SK-OV-3
  GI50: 16.6 µM (inactive)
SN12C
  GI50: 59.3 µM (inactive)
SNB-19
  GI50: 30.5 µM (inactive)
SNB-75
  GI50: 24.5 µM (inactive)
SR
  GI50: 12.4 µM (inactive)
SW-620
  GI50: 45.9 µM (inactive)
T47D
  GI50: 19.1 µM (inactive)
TK-10
  GI50: 33.5 µM (inactive)
U-251
  GI50: 29 µM (inactive)
UACC-257
  GI50: 45 µM (inactive)
UACC-62
  GI50: 42.2 µM (inactive)
